Counter-ions that a name gives are not always drawn.
Legend:
[1] = Solubility and hygroscopicity of the salt; format: physicochemical
ddN mice = settings: cited from earlier work
[2] = test system: histamine-induced asthma attack; assay: Inhibitory action on histamine-induced asthma attack in guinea pigs; format: in vivo, guinea pig; settings: for z1 (statistical value): Mann and Whitney U test
Procedure: Inhibitory actions on histamine-induced asthma attack: Male guinea pigs, of about 300 g body weight are used. Asthma attack is provoked by an aerosol of 0.2% histamine dihydrochloride solution in physiological saline for 10 minutes. The inhibitory actions are examined by shock grades, No. of collapsed guinea pigs/No. of provoked guinea pigs and survival rate. The tested compounds are orally given 2 hrs. prior to spraying of histamine solution.
A/B: No. of collapsed guinea pigs/ No. of provoked guinea pigs.
Statistical comparisons were carried out with the Mann and Whtineys' U

[3] = test system: BSA induced asthma in guinea pigs; assay: Inhibitory action on BSA-induced (experimentally allergic) asthma attack in passively sensitized guinea pigs; format: in vivo, guinea pig; settings: for p (statistical significance vs non treatment) / z1 (statistical value vs non treatment): severity; for z1 (statistical value vs non treatment): Mann and Whitney U test
Procedure: The present compound is studied on asthma attacks induced by the antigen-antibody reaction in guinea pigs. The guinea pigs are sensitized passively by the injection of 0.1 to 0.3 ml /100g body weight of rabbit antiserum to BSA (bovine serum albumin) into the ear vein. Forty six hours after passive sensitization, the guinea pigs are orally given the tested compounds. Two hours after oral administration, the asthma attack is provoked by an aerosol injection (0.1 ml/min.) of 1% BSA solution in physiological saline into the plastic chamber in which the testing guinea pig is placed. The symptoms of the asthma attack are observed for 10 minutes and scored on the following shock indices. The shock indices are examined by the shock grades, No. of collapsed guinea pigs/No. of used animals and survival rate.
The shock grades are as follows:
1 slight stimulation of expiration
2 stimulation of expiration (labored expiration)
3 attack of singultation
4 the strongest attack of collapse and struggle
but recovery from collapse within 5 minutes
5 recovery from collapse within 5 to 10 minutes
6 interruption of expiration to death within 10
*Statistical comparisons were carried out with the Mann and Whitneys' U
z1 : The statistical value between non treatment and each tested
z2 : The statistical value between the present compound and […]

[4] = test system: guinea pig tracheal chain strips; assay: Anti histaminic action: histamine-induced contraction of guinea pig tracheal chain strips; settings: 4×10^^-5 M; Tyrodes solution
[5] = test system: heterologous PCA in guinea pigs; assay: Heterologous passive cutaneous anaphylaxis (PCA) in guinea pigs; format: in vivo, guinea pig; settings: 25 mg/kg po, 30 min. before challenge; rabbit antiserum to egg albumin
Procedure: Male guinea pigs are passively sensitized by the intradermal injection of rabbit antiserum to egg albumin and challenged by the intravenous injection of egg albumin 4 hrs. after the sensitization. The test compounds are orally given 30 min. before the challenge.

guinea pig ileum = assay: Schultz-Dale reaction in guinea pig ileum sensitized actively with egg albumin; settings: antigen egg albumin
Procedure: Male guinea pigs are actively sensitized and their ileum preparations are treated by Schultz-Dales method (J. Pharmacol. Exp. Ther., 4, 167, 1913). […] These preceeding pharmacological properties of the present compound are due to triazolo [1,5-a]pyridine.

[6] = antiserum 0.1 ml/100 g, 0.5 mg/kg p.o.
[7] = antiserum 0.1 ml/100 g, 1.0 mg/kg p.o.
[8] = antiserum 0.1 ml/100 g, 5.0 mg/kg p.o.
[9] = antiserum 0.2 ml/100 g, 5 mg/kg p.o.
[10] = antiserum 0.3 ml/100 g, 5 mg/kg p.o.

## c1ccc(C(c2ccccc2)N2CCN(CCCc3nc4ccccn4n3)CC2)cc1 [dihydrochloride salt]
[1]; alcohols
  solubility in alcohols: soluble
[1]; fine needles from ethanol-petroleum ether
  hygroscopicity: hydroscopic
[1]; water
  solubility in water: soluble

## CN1CCCN(C(c2ccccc2)c2ccc(Cl)cc2)CC1 (stereo not drawn) [homochlorcyclizine, reference compound]
ddN mice
  acute LD50 (reported for standard drug): 353 mg/kg
[2]; 2.50 mg/kg p.o.
  A/B: No. of collapsed / No. of provoked guinea pigs: 5/11
  A/B: collapsed guinea pigs, number in parentheses (percentage): 45.5
  Survival rate (animals): 11/11
  Survival rate, number in parentheses (percentage): 100
[2]; 2.50 mg/kg p.o. vs non treatment 2 (so in the source)
  z1 (statistical value): > 5
[2]; 2.50 mg/kg p.o., homochlorcyclizine
  significance of difference from non treatment 2 (so in the source): markedly significant difference
[2]; 10.0 mg/kg p.o.
  A/B: No. of collapsed / No. of provoked guinea pigs: 1/6
  A/B: collapsed guinea pigs, number in parentheses (percentage): 16.7
  Survival rate (animals): 6/6
  Survival rate, number in parentheses (percentage): 100
[2]; 10.0 mg/kg p.o. vs non treatment 1 (so in the source)
  z1 (statistical value): 3.315
[2]; 10.0 mg/kg p.o., homochlorcyclizine
  p (significant difference from non treatment 1): 0.0005
[3]; [6]
  A/B: No. of collapsed / No. of provoked guinea pigs: 4/6
  A/B: collapsed guinea pigs, percentage: 66.7%
  Survival rate (animals): 5/6
  Survival rate, percentage: 83.3%
  p (statistical significance vs non treatment): < 0.02
  z1 (statistical value vs non treatment): 2.235
[3]; [7]
  A/B: No. of collapsed / No. of provoked guinea pigs: 6/10
  A/B: collapsed guinea pigs, percentage: 60%
  Survival rate (animals): 10/10
  Survival rate, percentage: 100%
  p (statistical significance vs non treatment): < 0.001
  z1 (statistical value vs non treatment): 3.368
[3]; [8]
  A/B: No. of collapsed / No. of provoked guinea pigs: 1/6
  A/B: collapsed guinea pigs, percentage: 16.7%
  Survival rate (animals): 6/6
  Survival rate, percentage: 100%
  p (statistical significance vs non treatment): < 0.001
  z1 (statistical value vs non treatment): 3.576
[3]; [9]
  A/B: No. of collapsed / No. of provoked guinea pigs: 4/6
  A/B: collapsed guinea pigs, percentage: 66.7%
  Survival rate (animals): 6/6
  Survival rate, percentage: 100%
  p (statistical significance vs non treatment): < 0.0001
  z1 (statistical value vs non treatment): 3.993
[3]; [10]
  A/B: No. of collapsed / No. of provoked guinea pigs: 1.5
  A/B: collapsed guinea pigs, percentage: 20%
  Survival rate (animals): 5/5
  Survival rate, percentage: 100%
  p (statistical significance vs non treatment): < 0.002
  z1 (statistical value vs non treatment): 3.23
[4]
  inhibitory rate on histamine-induced contraction: 74%
[5]
  Inhibition % of extravasation of blue dye: 41.7%

## c1ccc(C(c2ccccc2)N2CCN(CCCc3nc4ccccn4n3)CC2)cc1 [the present compound HCl salt]
Guinea pig ileum; 2×10^^-7 M
  Inhibition % of Schultz-Dale reaction: 32.2%
Guinea pig ileum; 3×10^^-7 M
  Inhibition % of Schultz-Dale reaction: 55.6%
Guinea pig ileum; 5×10^^-7 M
  Inhibition % of Schultz-Dale reaction: 60.1%
